Assay results taken from the supplement of paper PMC10307832.

How the values were obtained:
Assay in all cases: relative viability (nuclei count vs DMSO), 5 days (fraction); higher = more cells survive
[1] = compound: CC1=C(C(=NN1)C)CC2=C(C3=C(S2)N(C(=O)N(C3=O)C)CC(C)C)C(=O)N4C[C@@H](CO4)O + COc1cccc2cc(-c3nc([C@H]4CC[C@H](C(=O)O)CC4)n4ncnc(N)c34)[nH]c12 [OSI-027] (partner 0.5 µM)
Summary of the method: (§1)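 One day after seeding in 1536-well plates, lung cancer cell lines were dosed by pin tool. Dosing was either single-drug or a fixed anchor-drug dose plus five library-drug doses (not always all listed) in √10 steps. After 5 days, nuclei were stained in one fix-and-stain step and counted on 4× images, and relative viability is the nuclei count of treated wells over that of vehicle wells, given as the median of duplicate plates.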

[2] = compound: CC1=C(C(=NN1)C)CC2=C(C3=C(S2)N(C(=O)N(C3=O)C)CC(C)C)C(=O)N4C[C@@H](CO4)O + C[C@@H](Oc1cc(-c2cnn(C3CCNCC3)c2)cnc1N)c1c(Cl)ccc(F)c1Cl [Crizotinib] (partner 1 µM)
Summary of the method: as §1

[3] = compound: CC1=C(C(=NN1)C)CC2=C(C3=C(S2)N(C(=O)N(C3=O)C)CC(C)C)C(=O)N4C[C@@H](CO4)O + Nc1ncn([C@H]2C[C@H](O)[C@@H](CO)O2)c(=O)n1 [Decitabine] (partner 2 µM)
Summary of the method: as §1

IDH-C35 + OSI-027 = compound: Cc1ccccc1C(C(=O)NC1CCCCC1)N(C(=O)Cn1ccnc1C)c1cccc(F)c1 [IDH-C35] + COc1cccc2cc(-c3nc([C@H]4CC[C@H](C(=O)O)CC4)n4ncnc(N)c34)[nH]c12 [OSI-027] (partner 0.5 µM)
Summary of the method: as §1

Row | Cell Line | relative viability ([1]; first compound 0.0025 µM) | relative viability ([1]; first compound 0.007906 µM) | relative viability ([1]; first compound 0.025 µM) | relative viability ([1]; first compound 0.07906 µM) | relative viability ([1]; first compound 0.25 µM) | relative viability ([2]; first compound 0.0025 µM) | relative viability ([2]; first compound 0.007906 µM) | relative viability ([2]; first compound 0.025 µM) | relative viability ([2]; first compound 0.07906 µM) | relative viability ([2]; first compound 0.25 µM) | relative viability ([3]; first compound 0.0025 µM) | relative viability ([3]; first compound 0.007906 µM) | relative viability ([3]; first compound 0.025 µM) | relative viability ([3]; first compound 0.07906 µM) | relative viability ([3]; first compound 0.25 µM) | relative viability (IDH-C35 + OSI-027; first compound 0.08 µM) | relative viability (IDH-C35 + OSI-027; first compound 0.253 µM) | relative viability (IDH-C35 + OSI-027; first compound 0.8 µM) | relative viability (IDH-C35 + OSI-027; first compound 2.53 µM) | relative viability (IDH-C35 + OSI-027; first compound 8 µM)
1 | NCI-H2023 | 0.465 | 0.423 | 0.481 | 0.473 | 0.393 | 0.76 | 0.731 | 0.705 | 0.691 | 0.659 | 0.23 | 0.255 | 0.211 | 0.231 | 0.244 | 0.418 | 0.417 | 0.426 | 0.411 | 0.307
2 | COR-L 105 | 0.741 | 0.694 | 0.663 | 0.838 | 0.679 | 0.969 | 0.738 | 0.668 | 0.748 | 0.771 | 0.574 | 0.632 | 0.653 | 0.644 | 0.615 | 0.588 | 0.771 | 0.735 | 0.727 | 0.628
3 | RERF-LC-KJ | 0.589 | 0.519 | 0.598 | 0.681 | 0.627 | 0.862 | 0.819 | 0.823 | 0.865 | 0.88 | 0.852 | 0.739 | 0.766 | 0.656 | 0.678 | 0.562 | 0.631 | 0.643 | 0.614 | 0.597
4 | LXF-289 | 0.902 | 0.785 | 0.734 | 0.819 | 0.749 | 0.817 | 0.735 | 0.818 | 0.789 | 0.818 | 0.432 | 0.395 | 0.354 | 0.393 | 0.443 | 0.79 | 0.761 | 0.757 | 0.783 | 0.709
5 | PC-14 | 0.785 | 1.19 | 0.78 | 1.01 | 1.16 | 0.91 | 0.904 | 0.881 | 0.932 | 0.954 | 0.223 | 0.27 | 0.215 | 0.199 | 0.275 | 0.956 | 0.798 | 0.755 | 0.837 | 0.711
6 | NCI-H650 | 0.637 | 0.509 | 0.501 | 0.451 | 0.647 | 0.949 | 0.75 | 0.631 | 0.77 | 0.773 | 0.321 | 0.39 | 0.336 | 0.329 | 0.361 | 0.558 | 0.571 | 0.466 |  | 0.509
7 | NCI-H1666 | 0.881 | 0.927 | 0.811 | 0.8 | 0.944 | 1.04 | 1.16 | 1.05 | 0.977 | 1.08 | 0.631 | 0.831 | 0.74 | 0.666 | 0.658 | 0.828 | 0.81 | 0.865 | 0.845 | 0.841
8 | NCI-H2085 | 0.722 | 0.685 | 0.759 | 0.736 | 0.447 | 0.923 | 0.726 | 0.8 | 0.89 | 0.862 | 0.526 | 0.543 | 0.536 | 0.473 | 0.661 | 0.772 | 0.929 | 0.722 | 0.741 | 0.638
9 | NCI-H1734 | 0.682 | 0.592 | 0.65 | 0.617 | 0.624 | 0.773 | 0.517 | 0.641 | 0.614 | 0.562 | 0.561 | 0.516 | 0.533 | 0.451 | 0.503 | 0.643 | 0.621 | 0.564 | 0.6 | 0.597
10 | NCI-H2126 | 0.78 | 0.669 | 0.787 | 0.661 | 0.684 | 1.05 | 1.02 | 1.01 | 1 | 1.02 | 0.575 | 0.561 | 0.564 | 0.512 | 0.603 | 0.767 | 0.731 | 0.68 | 0.651 | 0.677
11 | EMC-BAC-2 | 0.416 | 0.403 | 0.394 | 0.43 | 0.416 | 0.806 | 0.866 | 0.753 | 0.788 | 0.866 | 1.03 | 1.01 | 1.03 | 1.03 | 1.03 | 0.364 | 0.366 | 0.383 | 0.39 | 0.385
12 | NCI-H1993 | 0.515 | 0.539 | 0.541 | 0.463 | 0.57 | 1.07 | 0.901 | 0.965 | 0.853 | 0.932 | 0.59 | 0.523 | 0.607 | 0.595 | 0.536 | 0.522 | 0.532 | 0.57 | 0.505 | 0.555
13 | NCI-H520 | 0.276 | 0.281 | 0.27 | 0.277 | 0.193 | 0.717 | 0.671 | 0.307 | 0.291 | 0.36 | 0.476 | 0.448 | 0.45 | 0.423 | 0.371 | 0.257 | 0.243 | 0.268 | 0.276 | 0.265
14 | NCI-H647 | 0.727 | 0.805 | 0.805 | 0.769 | 0.569 | 1.26 | 1.32 | 1.02 | 1.05 | 1.38 | 0.48 | 0.44 | 0.298 | 0.535 | 0.321 | 0.683 | 0.676 | 0.573 | 0.569 | 0.665
